Patent US12521440B2, “Degradation of bruton's tyrosine kinase (BTK) by conjugation of BTK inhibitors with E3 ligase ligand and methods of use” (BeOne Medicines I GmbH, priority 2021, dated 2026)

Key:
BTK = biological target: T1, BTK (Homo sapiens, UniProt Q06187); test: BTK degradation in TMD-8 cells (HTRF assay); assay type: cell-based; conditions: 6 h treatment, HTRF BTK degradation IC50 (DC50)
T1 construct: endogenous in cells; host or cells: TMD-8 cells
Description: TMD-8 cells were treated with compounds diluted in 0.2% DMSO, dilution was done according to the following protocol: (1) making 500×stock solution in DMSO from 1 mM by 6-fold dilution, total 8 doses were included; (2) making 2×solution in cell culture medium by transferring 0.5 μl 500×stock solution into 125 μl medium; (3) adding 15 μl of 2×solution to cells for incubation of 6 h.
After 6 h treatment, 10 μl 4×lysis buffer was added to each well; the plate was sealed and incubated for 30 min at room temperature on a plate shaker; Once the cells was lysed, 16 μL of cell lysate were transferred to a PE 384-well HTRF detection plate; 4 μL of pre-mixed HTRF antibodies were added to each well; the plate was covered with a plate sealer, and then spinned at 1000 rpm for 1 min, then incubated overnight at room temperature; the results were read on BMG PheraStar with HTRF protocol (337 nm-665 nm-620 nm).
(§1) The IC50 (DC50) value of a compound can be obtained by fitting the following equation Y=Bottom+(TOP−Bottom)/(1+((IC50/X)^hillslope)) wherein, X and Y are known values, and IC50, Hillslope, Top and Bottom are the parameters obtained by fitting with software. Y is the inhibition percentage (calculated from the equation), X is the concentration of the compound; IC50 is the concentration of the compound when the 50% inhibition is reached. The smaller the IC50 value is, the stronger the inhibitory ability of the compound is. Vice versa, the higher the IC50 value is, the weaker the ability the inhibitory ability of the compound is; Hillslope represents the slope of the fitted curve, generally around 1*; Bottom represents the minimum value of the curve obtained by data fitting, which is generally 0%±20%; Top represents the maximum value of the curve obtained by data fitting, which is generally 100%±20%. The experimental data were fitted by calculating and analyzing with Dotmatics data analysis software. HEK-293 Cell Treatment

HEK-293 cells = test: HEK-293 cytotoxicity detection (CellTiter-Glo); assay type: cell-based; conditions: Homo sapiens, 72 h incubation, read-out: HEK293
Excerpt: as §1
HEK-293 cells were treated with compounds diluted in 0.2% DMSO, dilution was done according to the following protocol: (1) making 500×stock solution in DMSO from 5 mM by 4-fold dilution, total 8 doses were included; (2) making 2×solution in cell culture medium by transferring 0.5 ul 500×stock solution into 125 ul medium; (3) adding 50 ul of 2×solution to cells for incubation of 72 h.
25 μl of the CellTiter-Glo® Reagent [(Promega)—Cat No. G7572] was added to each well in the 96-well plate. The contents were mixed for 2 minutes on an orbital shaker to induce cell lysis. The plate was then allowed to incubate at room temperature for 10 minutes to stabilize luminescent signal. Luminescence was recorded on BMG PheraStar with luminescence protocol.
as §1, with “IC50” for “IC50 (DC50)”, “Wherein,” for “wherein,”, “software.” for “software. HEK-293 Cell Treatment”

T1 sequence (Q06187 whole entry): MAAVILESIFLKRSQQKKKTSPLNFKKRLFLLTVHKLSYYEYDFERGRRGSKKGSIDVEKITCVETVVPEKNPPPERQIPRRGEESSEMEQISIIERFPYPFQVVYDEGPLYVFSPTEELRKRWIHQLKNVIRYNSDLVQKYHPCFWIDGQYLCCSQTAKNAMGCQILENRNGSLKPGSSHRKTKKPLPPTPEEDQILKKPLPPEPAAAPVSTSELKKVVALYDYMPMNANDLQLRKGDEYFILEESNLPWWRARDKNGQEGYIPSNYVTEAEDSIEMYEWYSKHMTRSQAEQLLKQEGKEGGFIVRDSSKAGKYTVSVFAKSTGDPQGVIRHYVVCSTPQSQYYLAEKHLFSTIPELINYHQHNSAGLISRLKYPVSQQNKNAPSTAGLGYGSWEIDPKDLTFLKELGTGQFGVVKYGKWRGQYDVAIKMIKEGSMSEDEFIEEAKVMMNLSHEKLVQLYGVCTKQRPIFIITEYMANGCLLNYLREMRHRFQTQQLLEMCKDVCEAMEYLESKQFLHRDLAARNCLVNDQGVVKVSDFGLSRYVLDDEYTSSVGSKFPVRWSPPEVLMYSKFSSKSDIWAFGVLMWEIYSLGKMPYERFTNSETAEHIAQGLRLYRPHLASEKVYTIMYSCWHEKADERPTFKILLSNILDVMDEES

Row | Compound | DC50 (BTK) [nM] | IC50 (HEK-293 cells) [nM]
1 | Cc1cc(-c2cc(Nc3ncc(N4CCN(CC5CCN(c6ccc(N7CCC(=O)NC7=O)cc6)CC5)CC4)cn3)ncn2)ccc1[C@@H](C)NC(=O)c1nc(C(C)(C)C)no1 [Example 14, (R)-3-(tert-butyl)-N-(1-(4-(6-((5-(4-((1-(4-(2,4-dioxotetrahydropyrimidin-1(2H)-yl)phenyl)piperidin-4-yl)methyl)piperazin-1-yl)pyrimidin-2-yl)amino)pyrimidin-4-yl)-2-methylphenyl)ethyl)-1,2,4-oxadiazole-5-carboxamide] | 3.21 | > 10000
2 | Cc1cc(-c2cc(Nc3ccc(N4CCN(CC5CCN(c6ccc(N7CCC(=O)NC7=O)cc6)CC5)CC4)nn3)ncn2)ccc1[C@@H](C)NC(=O)c1nc(C(C)(C)C)no1 [Example 15] | 0.638 | > 10000
3 | Cc1cc(-c2cc(Nc3ccc(N4CCN(CC5CCN(c6ccc(N7CCC(=O)NC7=O)cc6)CC5)CC4)cn3)ncn2)ccc1[C@@H](C)NC(=O)c1nc(C(C)(C)C)no1 [Example 16, (R)-3-(tert-butyl)-N-(1-(4-(6-((5-(4-((1-(4-(2,4-dioxotetrahydropyrimidin-1(2H)-yl)phenyl)piperidin-4-yl)methyl)piperazin-1-yl)pyridin-2-yl)amino)pyrimidin-4-yl)-2-methylphenyl)ethyl)-1,2,4oxadiazole-5-carboxamide] | 1.29 | > 10000

More lines, in order of falling DC50 (BTK), values ahead:

Row | DC50 (BTK) [nM] | Compound | IC50 (HEK-293 cells) [nM]
4 | 32.7 | Cc1cc(-c2cc(Nc3ccc(N4CCN(CC5CCN(c6ccc(N7CCC(=O)NC7=O)cc6)CC5)CC4)nc3)ncn2)ccc1[C@@H](C)NC(=O)c1nc(C(C)(C)C)no1 [Example 13, (R)-3-(tert-butyl)-N-(1-(4-(6-((6-(4-((1-(4-(2,4-dioxotetrahydropyrimidin-1(2H)-yl)phenyl)piperidin-4-yl)methyl)piperazin-1-yl)pyridin-3-yl)amino)pyrimidin-4-yl)-2-methylphenyl)ethyl)-1,2,4-oxadiazole-5-carboxamide] | > 10000
5 | 2.51 | Cc1cc(-c2cc(Nc3ccc(N4CCN(CC5CN(c6ccc(C7CCC(=O)NC7=O)cc6)C5)CC4)cn3)ncn2)ccc1[C@@H](C)NC(=O)c1nc(C(C)(C)C)no1 (stereo partly drawn) [Example 19, 3-(tert-butyl)-N-((1R)-1-(4-(6-((5-(4-((1-(4-(2,6-dioxopiperidin-3-yl)phenyl)azetidin-3-yl)methyl)piperazin-1-yl)pyridin-2-yl)amino)pyrimidin-4-yl)-2-methylphenyl)ethyl)-1,2,4-oxadiazole-5-carboxamide] | > 10000
6 | 2.2 | Cc1cc(-c2cc(Nc3ccc(N4CCN(CC5CCN(c6ccc(N7CCC(=O)NC7=O)c(F)c6)CC5)CC4)cn3)ncn2)ccc1[C@@H](C)NC(=O)c1nc(C(C)(C)C)no1 [Example 17, (R)-3-(tert-butyl)-N-(1-(4-(6-((5-(4-((1-(4-(2,4-dioxotetrahydropyrimidin-1(2H)-yl)-3-fluorophenyl)piperidin-4-yl)methyl)piperazin-1-yl)pyridin-2-yl)amino)pyrimidin-4-yl)-2-methylphenyl)ethyl)-1,2,4-oxadiazole-5-carboxamide] | > 10000
7 | 1.15 | Cc1cc(-c2cc(Nc3ccc(N4CCN(CC5CCN(c6ccc(N7CCC(=O)NC7=O)c(C)c6)CC5)CC4)cn3)ncn2)ccc1[C@@H](C)NC(=O)c1nc(C(C)(C)C)no1 [Example 18, (R)-3-(tert-butyl)-N-(1-(4-(6-((5-(4-((1-(4-(2,4-dioxotetrahydropyrimidin-1(2H)-yl)-3-methylphenyl)piperidin-4-yl)methyl)piperazin-1-yl)pyridin-2-yl)amino)pyrimidin-4-yl)-2-methylphenyl)ethyl)-1,2,4-oxadiazole-5-carboxamide] | > 10000
